Source: PubChem BioAssay AID330 (DTP/NCI, 2004)
Inconclusive results and toxic doses are left out.

System: P388 leukemia ip, CD2F1 mice, survival T/C
Assay: NCI In Vivo Anticancer Drug Screen. Data for tumor model P388 Leukemia (intraperitoneal) in CD2F1 (CDF1) mice
Conditions: endpoint: median survival time, higher = longer survival
How it was run: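 Mice carrying the transplanted tumor received test compound or vehicle. Survival was recorded in each group, and the value is the treated-group measurement divided by that of the vehicle-treated control group.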

[1] = dose: 60.0 mg/kg/injection, schedule: Q01DX005 (ip), vehicle: saline with Tween-80
[2] = dose: 120.0 mg/kg/injection, schedule: Q01DX005 (ip), vehicle: saline with Tween-80
[3] = dose: 240.0 mg/kg/injection, schedule: Q01DX005 (ip), vehicle: saline with Tween-80
[4] = dose: 100.0 mg/kg/injection, schedule: Q01DX001 (ip), vehicle: Klucel (hydroxypropylcellulose) (HPC)
[5] = dose: 200.0 mg/kg/injection, schedule: Q01DX001 (ip), vehicle: Klucel (hydroxypropylcellulose) (HPC)
[6] = dose: 400.0 mg/kg/injection, schedule: Q01DX001 (ip), vehicle: Klucel (hydroxypropylcellulose) (HPC)
[7] = dose: 100.0 mg/kg/injection, schedule: Q04DX003 (ip), vehicle: saline with Tween-80
[8] = dose: 200.0 mg/kg/injection, schedule: Q04DX003 (ip), vehicle: saline with Tween-80
[9] = dose: 400.0 mg/kg/injection, schedule: Q04DX003 (ip), vehicle: saline with Tween-80
[10] = dose: 50.0 mg/kg/injection, schedule: Q01DX005 (ip), vehicle: saline with Tween-80
[11] = dose: 60.0 mg/kg/injection, schedule: Q01DX005 (ip), vehicle: Klucel (hydroxypropylcellulose) (HPC)
[12] = dose: 120.0 mg/kg/injection, schedule: Q01DX005 (ip), vehicle: Klucel (hydroxypropylcellulose) (HPC)
[13] = dose: 240.0 mg/kg/injection, schedule: Q01DX005 (ip), vehicle: Klucel (hydroxypropylcellulose) (HPC)
[14] = dose: 12.5 mg/kg/injection, schedule: Q01DX009 (ip), vehicle: other
[15] = dose: 25.0 mg/kg/injection, schedule: Q01DX009 (ip), vehicle: other
[16] = dose: 50.0 mg/kg/injection, schedule: Q01DX009 (ip), vehicle: other
[17] = dose: 100.0 mg/kg/injection, schedule: Q01DX009 (ip), vehicle: other
[18] = dose: 200.0 mg/kg/injection, schedule: Q01DX009 (ip), vehicle: other
[19] = dose: 6.25 mg/kg/injection, schedule: Q01DX009 (ip), vehicle: saline with Tween-80
[20] = dose: 12.5 mg/kg/injection, schedule: Q01DX009 (ip), vehicle: saline with Tween-80
[21] = dose: 100.0 mg/kg/injection, schedule: Q01DX009 (ip), vehicle: saline with Tween-80
[22] = dose: 200.0 mg/kg/injection, schedule: Q01DX009 (ip), vehicle: saline with Tween-80

CC(C)N(CCO)CC(O)Cn1cnc2ncnc(N)c21 (configuration not stated)
T/C (dose: 60.0 mg/kg/injection, schedule: Q01DX005 (ip), vehicle: saline): 94 % of control
T/C (dose: 120.0 mg/kg/injection, schedule: Q01DX005 (ip), vehicle: saline): 97 % of control
T/C (dose: 240.0 mg/kg/injection, schedule: Q01DX005 (ip), vehicle: saline): 94 % of control

COC(=O)C1c2ccccc2C(C(=O)OC)C(C(=O)OC)C(C(=O)OC)c2ccccc21 (configuration not stated)
T/C (dose: 100.0 mg/kg/injection, schedule: Q04DX003 (ip), vehicle: Klucel (hydroxypropylcellulose) (HPC)): 102 % of control
T/C (dose: 200.0 mg/kg/injection, schedule: Q04DX003 (ip), vehicle: Klucel (hydroxypropylcellulose) (HPC)): 102 % of control
T/C (dose: 400.0 mg/kg/injection, schedule: Q04DX003 (ip), vehicle: Klucel (hydroxypropylcellulose) (HPC)): 99 % of control

CC(=O)Nc1[nH]ncc1C#N
T/C [1]: 98 % of control
T/C [2]: 107 % of control
T/C [3]: 101 % of control

COCC1(C)CCCC2(C)C3=C(CC=C(OC)C3)CCC12 (configuration not stated)
T/C [4]: 102 % of control
T/C [5]: 94 % of control
T/C [6]: 90 % of control

O=C1C=C(Nc2ccccc2)CCC1
T/C [7]: 100 % of control
T/C [8]: 105 % of control
T/C [9]: 105 % of control

COc1ccc(Cc2c3ccccc3cc[n+]2Cc2ccccc2)cc1OC
T/C (dose: 6.25 mg/kg/injection, schedule: Q01DX005 (ip), vehicle: saline with Tween-80): 103 % of control
T/C (dose: 12.5 mg/kg/injection, schedule: Q01DX005 (ip), vehicle: saline with Tween-80): 111 % of control
T/C (dose: 25.0 mg/kg/injection, schedule: Q01DX005 (ip), vehicle: saline with Tween-80): 111 % of control
T/C [10]: 114 % of control

c1cnc(NC(Nc2cnccn2)C2CCCCC2)cn1
T/C [11]: 96 % of control
T/C [12]: 100 % of control
T/C [13]: 107 % of control

Cn1nc2c(c1-c1ccncc1)CCc1ccccc1-2
T/C [14]: 110 % of control
T/C [15]: 105 % of control
T/C [16]: 115 % of control
T/C [17]: 107 % of control
T/C [18]: 103 % of control

CCC1=NO[C@@H](C(=O)OCc2ccccc2)[C@H]1C
T/C [1]: 113 % of control
T/C [2]: 103 % of control
T/C [3]: 95 % of control

Nc1ccc(C2NC(=O)Cc3c2ccc2ccccc32)cc1 (configuration not stated)
T/C [11]: 95 % of control
T/C [12]: 94 % of control
T/C [13]: 95 % of control

Cc1cc(C)c(S(=O)(=O)N/N=C(\CBr)c2ccccc2)c(C)c1
T/C (dose: 7.5 mg/kg/injection, schedule: Q01DX005 (ip), vehicle: saline with Tween-80): 97 % of control
T/C (dose: 15.0 mg/kg/injection, schedule: Q01DX005 (ip), vehicle: saline with Tween-80): 91 % of control
T/C (dose: 30.0 mg/kg/injection, schedule: Q01DX005 (ip), vehicle: saline with Tween-80): 102 % of control
T/C [3]: 89 % of control

CSC(=S)NN=C(c1ccccn1)c1ccccn1
T/C [19]: 96 % of control
T/C [20]: 99 % of control
T/C (dose: 25.0 mg/kg/injection, schedule: Q01DX009 (ip), vehicle: saline with Tween-80): 92 % of control
T/C [21]: 91 % of control
T/C [22]: 88 % of control

Fc1ccccc1N/N=c1\nnc2ccccc2s1
T/C (dose: 50.0 mg/kg/injection, schedule: Q04DX002 (ip), vehicle: saline with Tween-80): 97 % of control
T/C (dose: 100.0 mg/kg/injection, schedule: Q04DX002 (ip), vehicle: saline with Tween-80): 93 % of control
T/C (dose: 200.0 mg/kg/injection, schedule: Q04DX002 (ip), vehicle: saline with Tween-80): 92 % of control

CCCCCCC[CH2][Sn]([Cl])([Cl])[Cl]
T/C (dose: 100.0 mg/kg/injection, schedule: Q04DX003 (ip), vehicle: saline): 98 % of control
T/C (dose: 200.0 mg/kg/injection, schedule: Q04DX003 (ip), vehicle: saline): 102 % of control
T/C (dose: 400.0 mg/kg/injection, schedule: Q04DX003 (ip), vehicle: saline): 104 % of control

Cc1cc2c(c3ncccc13)OCN(Cc1ccc(Cl)c(Cl)c1)C2
T/C (dose: 50.0 mg/kg/injection, schedule: Q01DX009 (ip), vehicle: saline with Tween-80): 100 % of control
T/C [21]: 98 % of control
T/C [22]: 100 % of control

Cc1[nH]c2ccc(N(C)C)cc2c(=O)c1CN1CCOCC1
T/C (dose: 50.0 mg/kg/injection, schedule: Q01DX009 (ip), vehicle: Klucel (hydroxypropylcellulose) (HPC)): 107 % of control
T/C (dose: 100.0 mg/kg/injection, schedule: Q01DX009 (ip), vehicle: Klucel (hydroxypropylcellulose) (HPC)): 115 % of control
T/C (dose: 200.0 mg/kg/injection, schedule: Q01DX009 (ip), vehicle: Klucel (hydroxypropylcellulose) (HPC)): 107 % of control

O=C(O)/C=C/C(=O)NCc1ccco1
T/C [21]: 100 % of control
T/C [7]: 90 % of control
T/C [22]: 109 % of control
T/C [8]: 95 % of control
T/C (dose: 400.0 mg/kg/injection, schedule: Q01DX009 (ip), vehicle: saline with Tween-80): 100 % of control
T/C [9]: 100 % of control

C(=C\c1ccncc1)/c1ccccc1
T/C (dose: 50.0 mg/kg/injection, schedule: Q01DX005 (ip), vehicle: Klucel (hydroxypropylcellulose) (HPC)): 92 % of control
T/C (dose: 100.0 mg/kg/injection, schedule: Q01DX005 (ip), vehicle: Klucel (hydroxypropylcellulose) (HPC)): 90 % of control

COC(=O)C1=C(C(=O)OC)C2C=CC1C(=O)N2/C=C/c1ccccc1 (configuration not stated)
T/C [7]: 102 % of control
T/C [9]: 117 % of control

Cc1ccc(S(=O)(=O)N/N=C/C(N)=O)cc1
T/C [14]: 101 % of control
T/C [15]: 101 % of control
T/C [16]: 96 % of control
T/C [17]: 104 % of control
T/C [18]: 118 % of control
T/C (dose: 400.0 mg/kg/injection, schedule: Q01DX009 (ip), vehicle: other): 101 % of control

CCOP(O)(=S)OCC.[Sm]
T/C [4]: 88 % of control
T/C [5]: 88 % of control
T/C [6]: 94 % of control

CCCCN(CCCC)S(=O)(=O)N1CCCCC1
T/C (dose: 50.0 mg/kg/injection, schedule: Q04DX002 (ip), vehicle: saline): 105 % of control
T/C (dose: 100.0 mg/kg/injection, schedule: Q04DX002 (ip), vehicle: saline): 98 % of control
T/C (dose: 200.0 mg/kg/injection, schedule: Q04DX002 (ip), vehicle: saline): 96 % of control
T/C (dose: 400.0 mg/kg/injection, schedule: Q04DX002 (ip), vehicle: saline): 100 % of control

COc1ccc(/C=N/NC(=O)CNC(=O)c2ccc(Cl)c(Cl)c2)cc1
T/C (dose: 3.13 mg/kg/injection, schedule: Q01DX009 (ip), vehicle: saline with Tween-80): 100 % of control
T/C [19]: 108 % of control
T/C [20]: 107 % of control

C/C(=N\NC(=S)Nc1nccs1)c1ccc2ccccc2n1
T/C [10]: 102 % of control
T/C (dose: 100.0 mg/kg/injection, schedule: Q01DX005 (ip), vehicle: saline with Tween-80): 100 % of control
T/C (dose: 200.0 mg/kg/injection, schedule: Q01DX005 (ip), vehicle: saline with Tween-80): 113 % of control

CCCCCCCC(=O)NC1CC(O[C@H]2C[C@](O)(C(=O)CO)Cc3c(O)c4c(c(O)c32)C(=O)c2c(OC)cccc2C4=O)OC(C)C1O (some centres not stated)
T/C (dose: 6.25 mg/kg/injection, schedule: Q01DX009 (ip), vehicle: other): 153 % of control
T/C [14]: 177 % of control
T/C [15]: 184 % of control
T/C [16]: 155 % of control
T/C [17]: 86 % of control

COc1ccc(C(OC)C2CCCCC2N2CCCCC2)cc1 (configuration not stated)
T/C (dose: 0.5 mg/kg/injection, schedule: Q01DX009 (ip), vehicle: Klucel (hydroxypropylcellulose) (HPC)): 107 % of control
T/C (dose: 1.0 mg/kg/injection, schedule: Q01DX009 (ip), vehicle: Klucel (hydroxypropylcellulose) (HPC)): 114 % of control
T/C (dose: 2.0 mg/kg/injection, schedule: Q01DX009 (ip), vehicle: Klucel (hydroxypropylcellulose) (HPC)): 107 % of control
T/C (dose: 4.0 mg/kg/injection, schedule: Q01DX009 (ip), vehicle: Klucel (hydroxypropylcellulose) (HPC)): 109 % of control
